{"source": "paper PMC11882969", "about": "(Nature Communications, 2025)", "key": {"[1]": {"target": "panel of 320 non-olfactory GPCRs (Homo sapiens, UniProt Q86SM5)", "format": "cell-based"}, "[2]": {"target": "panel of 320 non-olfactory GPCRs (Homo sapiens, UniProt P28335, I156V/I160V/N158G)", "format": "cell-based"}, "[3]": {"target": "panel of 320 non-olfactory GPCRs (Homo sapiens, UniProt Q9BXC1)", "sequence (Q9BXC1 whole entry)": "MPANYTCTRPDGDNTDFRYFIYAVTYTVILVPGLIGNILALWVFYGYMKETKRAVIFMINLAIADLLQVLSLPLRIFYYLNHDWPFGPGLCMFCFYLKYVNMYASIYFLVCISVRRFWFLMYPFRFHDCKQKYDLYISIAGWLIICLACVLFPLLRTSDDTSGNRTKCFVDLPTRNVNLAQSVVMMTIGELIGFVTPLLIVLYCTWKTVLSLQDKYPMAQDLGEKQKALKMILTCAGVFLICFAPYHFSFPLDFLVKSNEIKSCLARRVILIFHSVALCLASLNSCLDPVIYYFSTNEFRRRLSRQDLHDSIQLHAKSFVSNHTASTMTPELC", "format": "cell-based"}, "[4]": {"target": "panel of 320 non-olfactory GPCRs (Homo sapiens, UniProt Q8TDV2)", "format": "cell-based"}, "[5]": {"target": "panel of 320 non-olfactory GPCRs (Homo sapiens, UniProt P25105)", "sequence (P25105 whole entry)": "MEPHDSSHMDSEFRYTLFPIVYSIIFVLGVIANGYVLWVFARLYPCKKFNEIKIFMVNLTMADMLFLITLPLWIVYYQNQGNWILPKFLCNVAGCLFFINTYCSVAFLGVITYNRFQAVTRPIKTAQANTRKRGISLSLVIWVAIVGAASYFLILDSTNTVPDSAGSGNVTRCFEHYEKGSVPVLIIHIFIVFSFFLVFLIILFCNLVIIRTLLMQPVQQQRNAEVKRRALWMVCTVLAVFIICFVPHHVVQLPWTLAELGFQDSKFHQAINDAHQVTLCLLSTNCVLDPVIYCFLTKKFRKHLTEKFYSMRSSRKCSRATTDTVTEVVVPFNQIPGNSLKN", "format": "cell-based"}, "[6]": {"target": "panel of 320 non-olfactory GPCRs (Homo sapiens, UniProt P08173)", "format": "cell-based"}, "[7]": {"target": "panel of 320 non-olfactory GPCRs (Homo sapiens, UniProt Q9P296)", "sequence (Q9P296 whole entry)": "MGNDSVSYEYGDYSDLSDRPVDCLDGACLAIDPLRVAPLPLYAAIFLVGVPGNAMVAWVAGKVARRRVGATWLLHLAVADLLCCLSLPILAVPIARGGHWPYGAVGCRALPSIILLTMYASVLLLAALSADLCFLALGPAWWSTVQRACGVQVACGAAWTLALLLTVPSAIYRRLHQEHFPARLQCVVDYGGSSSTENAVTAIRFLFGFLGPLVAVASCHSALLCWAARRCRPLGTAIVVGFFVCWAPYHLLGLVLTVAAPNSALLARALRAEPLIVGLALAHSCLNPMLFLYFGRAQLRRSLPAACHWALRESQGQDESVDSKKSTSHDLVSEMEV", "format": "cell-based"}, "[8]": {"target": "panel of 320 non-olfactory GPCRs (Homo sapiens, UniProt P08172)", "sequence (P08172 whole entry)": "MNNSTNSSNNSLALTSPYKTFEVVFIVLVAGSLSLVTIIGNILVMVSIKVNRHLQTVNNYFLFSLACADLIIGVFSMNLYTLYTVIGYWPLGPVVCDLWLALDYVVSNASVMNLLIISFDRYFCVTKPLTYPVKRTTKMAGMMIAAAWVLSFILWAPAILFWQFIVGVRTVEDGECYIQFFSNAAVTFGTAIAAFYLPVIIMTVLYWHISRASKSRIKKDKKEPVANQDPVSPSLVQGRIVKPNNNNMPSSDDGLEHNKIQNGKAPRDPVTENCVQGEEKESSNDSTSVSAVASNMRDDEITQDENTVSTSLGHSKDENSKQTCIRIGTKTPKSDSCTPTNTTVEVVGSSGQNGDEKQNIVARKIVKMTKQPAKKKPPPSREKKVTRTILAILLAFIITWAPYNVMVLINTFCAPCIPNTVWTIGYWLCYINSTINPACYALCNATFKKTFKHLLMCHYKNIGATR", "format": "cell-based"}, "[9]": {"target": "panel of 320 non-olfactory GPCRs (Homo sapiens, UniProt P61073)", "sequence (P61073 whole entry)": "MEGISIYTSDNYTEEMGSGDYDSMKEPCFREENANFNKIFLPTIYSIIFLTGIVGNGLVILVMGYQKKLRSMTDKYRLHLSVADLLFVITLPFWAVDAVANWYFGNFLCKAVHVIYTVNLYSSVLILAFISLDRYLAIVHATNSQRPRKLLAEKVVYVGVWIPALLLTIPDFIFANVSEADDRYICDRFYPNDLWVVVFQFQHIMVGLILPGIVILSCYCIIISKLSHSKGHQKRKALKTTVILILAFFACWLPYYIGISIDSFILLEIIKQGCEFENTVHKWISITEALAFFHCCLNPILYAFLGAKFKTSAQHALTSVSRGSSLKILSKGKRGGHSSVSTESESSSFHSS", "format": "cell-based"}, "[10]": {"target": "panel of 320 non-olfactory GPCRs (Homo sapiens, UniProt P34969)", "sequence (P34969 whole entry)": "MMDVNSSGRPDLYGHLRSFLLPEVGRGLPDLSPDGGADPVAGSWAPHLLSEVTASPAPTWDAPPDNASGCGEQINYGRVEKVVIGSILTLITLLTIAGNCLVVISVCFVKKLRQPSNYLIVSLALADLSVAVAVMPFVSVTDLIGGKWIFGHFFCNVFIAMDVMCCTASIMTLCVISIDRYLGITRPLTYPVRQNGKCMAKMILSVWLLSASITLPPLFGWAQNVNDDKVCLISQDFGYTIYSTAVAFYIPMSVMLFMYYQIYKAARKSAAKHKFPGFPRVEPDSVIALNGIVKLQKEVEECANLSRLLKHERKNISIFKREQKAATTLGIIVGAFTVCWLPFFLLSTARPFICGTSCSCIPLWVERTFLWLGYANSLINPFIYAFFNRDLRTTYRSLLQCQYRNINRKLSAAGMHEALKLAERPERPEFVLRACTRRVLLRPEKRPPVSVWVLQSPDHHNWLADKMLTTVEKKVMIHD", "format": "cell-based"}, "[11]": {"target": "panel of 320 non-olfactory GPCRs (Homo sapiens, UniProt Q9BZJ8)", "sequence (Q9BZJ8 whole entry)": "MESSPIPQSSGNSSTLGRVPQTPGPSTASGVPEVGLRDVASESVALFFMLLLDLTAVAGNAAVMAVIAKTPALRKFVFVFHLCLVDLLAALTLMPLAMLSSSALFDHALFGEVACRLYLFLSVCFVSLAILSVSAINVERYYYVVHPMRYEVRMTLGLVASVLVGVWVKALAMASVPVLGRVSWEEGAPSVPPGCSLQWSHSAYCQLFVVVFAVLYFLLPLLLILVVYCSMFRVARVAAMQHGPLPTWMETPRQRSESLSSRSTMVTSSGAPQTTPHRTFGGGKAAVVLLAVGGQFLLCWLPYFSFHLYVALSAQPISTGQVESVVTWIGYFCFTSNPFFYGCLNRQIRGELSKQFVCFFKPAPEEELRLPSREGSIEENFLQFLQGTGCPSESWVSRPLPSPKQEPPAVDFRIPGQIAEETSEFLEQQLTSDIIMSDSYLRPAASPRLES", "format": "cell-based"}, "[12]": {"target": "panel of 320 non-olfactory GPCRs (Homo sapiens, UniProt P25089)", "format": "cell-based"}, "[13]": {"target": "panel of 320 non-olfactory GPCRs (Homo sapiens, UniProt Q9Y653)", "sequence (Q9Y653 26-693)": "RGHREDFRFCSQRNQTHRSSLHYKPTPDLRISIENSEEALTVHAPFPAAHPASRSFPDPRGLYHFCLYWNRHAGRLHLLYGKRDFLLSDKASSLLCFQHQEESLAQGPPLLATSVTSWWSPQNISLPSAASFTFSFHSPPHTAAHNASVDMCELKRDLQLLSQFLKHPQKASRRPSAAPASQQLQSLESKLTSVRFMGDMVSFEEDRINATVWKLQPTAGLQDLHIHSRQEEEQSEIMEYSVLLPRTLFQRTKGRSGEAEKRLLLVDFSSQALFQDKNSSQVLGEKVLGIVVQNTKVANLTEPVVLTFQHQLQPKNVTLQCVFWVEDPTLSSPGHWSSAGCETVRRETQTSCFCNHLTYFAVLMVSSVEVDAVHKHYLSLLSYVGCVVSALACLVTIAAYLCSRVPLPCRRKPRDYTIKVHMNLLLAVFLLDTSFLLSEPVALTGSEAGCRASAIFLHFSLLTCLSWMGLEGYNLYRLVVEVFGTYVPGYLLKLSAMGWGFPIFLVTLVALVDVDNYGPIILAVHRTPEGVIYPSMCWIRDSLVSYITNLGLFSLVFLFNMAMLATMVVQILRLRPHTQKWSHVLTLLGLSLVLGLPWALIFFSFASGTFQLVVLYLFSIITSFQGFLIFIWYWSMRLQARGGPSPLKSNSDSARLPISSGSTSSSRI", "format": "cell-based"}, "[14]": {"target": "panel of 320 non-olfactory GPCRs (Homo sapiens, UniProt P30874)", "format": "cell-based"}, "[15]": {"target": "panel of 320 non-olfactory GPCRs (Homo sapiens, UniProt Q15761)", "format": "cell-based"}, "[16]": {"target": "panel of 320 non-olfactory GPCRs (Homo sapiens, UniProt P47901)", "sequence (P47901 whole entry)": "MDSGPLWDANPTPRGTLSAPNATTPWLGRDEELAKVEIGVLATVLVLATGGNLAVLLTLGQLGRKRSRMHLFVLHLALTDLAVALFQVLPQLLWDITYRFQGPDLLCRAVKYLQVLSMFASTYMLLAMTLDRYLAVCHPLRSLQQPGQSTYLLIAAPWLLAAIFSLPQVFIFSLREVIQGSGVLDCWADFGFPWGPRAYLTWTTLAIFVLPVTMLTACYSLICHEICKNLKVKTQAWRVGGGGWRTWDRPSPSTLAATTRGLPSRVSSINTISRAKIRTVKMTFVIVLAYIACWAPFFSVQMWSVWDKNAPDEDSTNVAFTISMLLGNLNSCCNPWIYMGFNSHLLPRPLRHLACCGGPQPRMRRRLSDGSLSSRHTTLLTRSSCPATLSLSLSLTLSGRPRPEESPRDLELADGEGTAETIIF", "format": "cell-based"}, "[17]": {"target": "T1, CB1R with G protein (Gi1-3, Go) (Homo sapiens, UniProt P21554)", "T1 construct": "a N-terminal FLAG tag and C-terminal histidine tag was added to human full-length CB1; FLAG (N); histidine tag (C); made in house; host or cells: CB1R: Spodoptera frugiperda Sf9; G proteins: Trichoplusia ni Hi5", "T1 sequence (P21554 whole entry)": "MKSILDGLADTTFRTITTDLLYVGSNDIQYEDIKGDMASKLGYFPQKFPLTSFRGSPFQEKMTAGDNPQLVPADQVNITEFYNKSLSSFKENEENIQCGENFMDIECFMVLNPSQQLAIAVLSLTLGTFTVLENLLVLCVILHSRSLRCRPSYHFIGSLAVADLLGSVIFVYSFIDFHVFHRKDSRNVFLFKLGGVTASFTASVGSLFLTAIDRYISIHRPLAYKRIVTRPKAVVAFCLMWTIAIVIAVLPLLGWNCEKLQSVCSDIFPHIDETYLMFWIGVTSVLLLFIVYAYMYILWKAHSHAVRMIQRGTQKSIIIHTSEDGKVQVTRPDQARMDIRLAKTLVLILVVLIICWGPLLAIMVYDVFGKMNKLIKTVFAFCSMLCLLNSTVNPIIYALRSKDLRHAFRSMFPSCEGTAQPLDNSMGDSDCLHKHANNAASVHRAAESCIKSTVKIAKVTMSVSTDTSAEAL", "test": "GTP turnover assay (GTPase-Glo)", "format": "biochemical", "conditions": "replicates, sheet FigS3c", "description": "Analysis of GTP turnover was performed by using a modified protocol of the GTPase-Glo^TM assay (Promega) described previously. Ligand-bound (10 μM ligand incubated for one hour at room temperature) or apo CB1R (1 μM) was mixed with G protein (1 μM) in 20 mM HEPES, pH 7.5, 50 mM NaCl, 0.01% L-MNG/0.001% CHS, 100 μM TCEP, 10 μM GDP and 10 μM GTP and incubated at room temperature. GTPase-Glo-reagent was added to the sample after incubation for 60 min (Gi1-3) and 20 min for (Go). Luminescence was measured after the addition of detection reagent and incubation for 10 min at room temperature using a SpectraMax Paradigm plate reader."}, "mice [18]": {"test_system": "mice", "method": "For all behavioral tests, the experimenter was always blind to treatment. Animals were first habituated for 30-60 min in Plexiglas cylinders and then tested 30 min after i.p. or i.t. injection of the compounds. The thermal (Hargreaves, hotplate and tail flick) and ambulatory (rotarod) tests were conducted as described[96]. Briefly, hindpaw thermal sensitivity was measured with a radiant heat source (Hargreaves) or on a hotplate at 52 °C. For the tail flick assay, sensitivity was measured by immersing the tail into a 50 °C water bath. For the ambulatory (rotarod) test, before testing with any compound, mice underwent three trainings on three consecutive days until they reach 300 sec. Each training has three sessions of five min each. Therapeutic window was calculated as the ratio of the minimum dose of side effect phenotype to the minimum dose of analgesic phenotype."}, "hCB1": {"target": "hCB1 (Homo sapiens, UniProt P21554)", "sequence (P21554 whole entry)": "as above", "test": "Radioligand competition binding at hCB1", "set-up": "host or cells: HEK293SL cells, transient PEI transfection", "conditions": "for radioligand binding, competition curve point (normalized): log[drug]"}, "mice [19]": {"test_system": "mice", "test": "Catalepsy test, vertical wire mesh", "format": "in vivo, mouse", "conditions": "for Individual animal values (FigS11d): test not printed on the sheet", "description": "Thirty min after an i.p. injection of the compounds, mice were placed on a vertical wire mesh and the latency to move all four paws was recorded."}, "hCB2": {"target": "hCB2 (Homo sapiens, UniProt P34972)", "sequence (P34972 whole entry)": "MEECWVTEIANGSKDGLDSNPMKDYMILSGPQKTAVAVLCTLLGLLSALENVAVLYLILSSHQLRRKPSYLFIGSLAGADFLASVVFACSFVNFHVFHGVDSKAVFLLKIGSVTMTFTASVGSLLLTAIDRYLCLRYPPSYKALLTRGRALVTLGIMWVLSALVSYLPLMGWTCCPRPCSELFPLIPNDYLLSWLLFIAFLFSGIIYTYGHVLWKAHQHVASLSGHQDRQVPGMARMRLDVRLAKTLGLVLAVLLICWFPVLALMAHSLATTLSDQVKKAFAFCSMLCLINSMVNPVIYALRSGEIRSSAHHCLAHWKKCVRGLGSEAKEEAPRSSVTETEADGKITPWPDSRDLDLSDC", "test": "Radioligand competition binding, HEK293 cells expressing human CB2R", "set-up": "expressed in transfected cells; host or cells: HEK293 cells stably expressing human CB2R (Laboratory of Ken Mackie)", "conditions": "hCB2, log[drug], replicate columns"}}, "note": "pKi: −log10 of the molar value. Where “and” joins values, the source holds several entries; their conditions need not be identical. Equal entries are not always repeated. Where two headings read alike, the source gives them in different places."}
{"smiles": "COC(=O)[C@@](C)(NC(=O)c1cc(C)n(-c2cccc(C(F)(F)F)c2)n1)c1cccs1", "note": "[‘1350]", "values": [{"measurement": "Fold of Basal RLU", "setting": "[1]", "value": "0.7 fold and 0.8 fold"}, {"measurement": "Fold of Basal RLU", "setting": "[2]", "value": "0.9 fold and 1.1 fold and 0.7 fold and 1 fold"}, {"measurement": "Fold of Basal RLU", "setting": "[3]", "value": "0.9 and 1.3 and 1"}, {"measurement": "Fold of Basal RLU", "setting": "[4]", "value": "1.2 and 0.6 and 0.9"}, {"measurement": "Fold of Basal RLU", "setting": "[5]", "value": "1.3 fold and 0.9 fold and 1.7 fold"}, {"measurement": "Fold of Basal RLU", "setting": "[6]", "value": "1 and 1.1 and 0.6 and 0.8"}, {"measurement": "Fold of Basal RLU", "setting": "[7]", "value": "0.9 fold and 0.8 fold and 1.3 fold and 1.5 fold"}, {"measurement": "Fold of Basal RLU", "setting": "[8]", "value": "0.9 fold and 0.6 fold and 0.8 fold"}, {"measurement": "Fold of Basal RLU", "setting": "[9]", "value": "1.2 fold and 1.1 fold and 1.3 fold"}, {"measurement": "Fold of Basal RLU", "setting": "[10]", "value": "0.9 fold and 1.4 fold and 1 fold"}, {"measurement": "Fold of Basal RLU", "setting": "[11]", "value": "1 and 0.7 and 0.9 and 0.8"}, {"measurement": "Fold of Basal RLU", "setting": "[12]", "value": "1 fold and 1.1 fold"}, {"measurement": "Fold of Basal RLU", "setting": "[13]", "value": "1.4 fold and 1.2 fold and 1.5 fold"}, {"measurement": "Fold of Basal RLU", "setting": "[14]", "value": "0.7 and 0.8 and 0.6"}, {"measurement": "Fold of Basal RLU", "setting": "[15]", "value": "1.2 fold and 1 fold"}, {"measurement": "Fold of Basal RLU", "setting": "[16]", "value": "1.5 and 0.8 and 0.9 and 1.1"}, {"measurement": "GTP turnover, normalised (FUB about 100)", "setting": "[17]; Gi2", "value": "96.8998 and 91.3876 and 87.4526 and 89.8295 and 89.8906 and 82.6279"}, {"measurement": "GTP turnover, normalised (FUB about 100)", "setting": "[17]; Gi3", "value": "81.2301 and 82.2228 and 81.0231 and 89.3188 and 82.6055 and 85.3572"}, {"measurement": "GTP turnover, normalised (FUB about 100)", "setting": "[17]; Goa", "value": "86.5272 and 96.4818 and 93.6031 and 96.9291 and 99.611 and 94.5957"}, {"measurement": "GTP turnover, normalised (FUB about 100)", "setting": "[17]; first block, G protein not printed (Gi2, Gi3, Goa follow)", "value": "83.1663 and 86.2553 and 85.2024 and 81.617 and 83.7026 and 83.2158"}, {"measurement": "therapeutic window, Acetone", "setting": "mice [18]; Figure 6e, vs rotarod", "value": 10}, {"measurement": "therapeutic window, Hot Plate", "setting": "mice [18]; Figure 6e, vs rotarod", "value": 5}, {"measurement": "therapeutic window, Tail Flick", "setting": "mice [18]; Figure 6e, vs rotarod", "value": 5}, {"measurement": "therapeutic window, analgesia vs catalepsy", "setting": "mice [18]; Figure 6f", "value": "at least a ten-fold window"}, {"measurement": "therapeutic window, Acetone", "setting": "mice [18]; Figure 6d, vs open field", "value": 4}, {"measurement": "therapeutic window, Hot Plate", "setting": "mice [18]; Figure 6d, vs open field", "value": 2}, {"measurement": "therapeutic window, Tail Flick", "setting": "mice [18]; Figure 6d, vs open field", "value": 2}, {"measurement": "therapeutic window, analgesia vs hypolocomotion, sedation, catalepsy", "setting": "mice [18]; mice", "value": "2-10 fold and 2-20 fold"}, {"measurement": "pKi", "setting": "hCB1", "value": 9.49}, {"measurement": "radioligand binding, competition curve point (normalized)", "setting": "hCB1; M = -6.64345, replicate columns", "value": "11.7845 and 1.336"}, {"measurement": "radioligand binding, competition curve point (normalized)", "setting": "hCB1; M = -7.35666, replicate columns", "value": "11.2233 and 0.827"}, {"measurement": "radioligand binding, competition curve point (normalized)", "setting": "hCB1; M = -8.06987, replicate columns", "value": "12.4018 and 13.4224"}, {"measurement": "radioligand binding, competition curve point (normalized)", "setting": "hCB1; M = -8.78308, replicate columns", "value": "40.0112 and 26.5903"}, {"measurement": "radioligand binding, competition curve point (normalized)", "setting": "hCB1; M = -9.49629, replicate columns", "value": "69.0236 and 54.2939"}, {"measurement": "radioligand binding, competition curve point (normalized)", "setting": "hCB1; M = -10.2095, replicate columns", "value": "97.7273 and 72.2328"}, {"measurement": "radioligand binding, competition curve point (normalized)", "setting": "hCB1; M = -11.9245, replicate columns", "value": "99.9439 and 88.4224"}, {"measurement": "radioligand binding, competition curve point (normalized)", "setting": "hCB1; M = -13.6383, replicate columns", "value": "102.525 and 91.0941"}, {"measurement": "catalepsy (Figure6c), individual animals", "setting": "mice [19]; 0.2 mg/kg dose", "value": "7 and 4 and 15 and 2 (2×)"}, {"measurement": "catalepsy (Figure6c), individual animals", "setting": "mice [19]; 0.5 mg/kg dose", "value": "2 and 10 and 30 and 20 and 5 and 0.5 and 2.4 and 2.2 and 2.3 and 0.7 and 1 and 2.7 and 2.9 and 2.1 and 1.4"}, {"measurement": "catalepsy (Figure6c), individual animals", "setting": "mice [19]; 1 mg/kg dose", "value": "16 and 5 and 4 and 30 and 6"}, {"measurement": "catalepsy at a sedating dose", "setting": "mice [19]; 1 mg/kg i.p.", "value": "non-significant, but nevertheless, increased latency to move the paws"}, {"measurement": "catalepsy in CB1R knockout", "setting": "mice [19]; 1 mg/kg, CB1R KO mice", "value": "eliminated this minimal cataleptic effect"}, {"measurement": "catalepsy in CB2R knockout", "setting": "mice [19]; 1 mg/kg, CB2R KO vs wildtype", "value": "statistically significant increase in catalepsy"}, {"measurement": "Individual animal values (FigS11d)", "setting": "mice [19]; CB1R KO mice, 1 mg/kg", "value": "3.1 and 2.8 and 2.7 and 1.8"}, {"measurement": "Individual animal values (FigS11d)", "setting": "mice [19]; CB2R KO mice, 0.2 mg/kg", "value": "2.2 and 2.7 and 4 and 4.2 and 2.8"}, {"measurement": "Individual animal values (FigS11d)", "setting": "mice [19]; CB2R KO mice, 0.5 mg/kg", "value": "3.3 and 4.3 and 29.3 and 28 and 5.6"}, {"measurement": "Individual animal values (FigS11d)", "setting": "mice [19]; CB2R KO mice, 1 mg/kg", "value": "40 and 2"}, {"measurement": "Individual animal values (FigS11d)", "setting": "mice [19]; WT mice, 0.2 mg/kg", "value": "7 and 4 and 15 and 2"}, {"measurement": "Individual animal values (FigS11d)", "setting": "mice [19]; WT mice, 0.5 mg/kg", "value": "2.4 and 2.2 and 2.3 and 0.7 and 1 and 2.7 and 2.1 and 1.4 and 2 and 10 and 30 and 20 and 5"}, {"measurement": "Individual animal values (FigS11d)", "setting": "mice [19]; WT mice, 1 mg/kg", "value": "16 and 5 and 4 and 30 and 6"}, {"measurement": "dose at which catalepsy starts", "setting": "mice [19]; i.p.", "value": 1, "unit": "mg/kg"}, {"measurement": "catalepsy, latency to move all four paws", "setting": "mice [19]; i.p., ‘1350 at 0.2 or 0.5 mg/kg, haloperidol 1.0 mg/kg", "value": "did not induce cataleptic behavior"}, {"measurement": "radioligand binding, competition curve point (normalized)", "setting": "hCB2; M = -6.64345", "value": "1.586 and -0.1332"}, {"measurement": "radioligand binding, competition curve point (normalized)", "setting": "hCB2; M = -7.35666", "value": "2.208 and 1.359"}, {"measurement": "radioligand binding, competition curve point (normalized)", "setting": "hCB2; M = -8.06987", "value": "13.0908 and 10.365"}, {"measurement": "radioligand binding, competition curve point (normalized)", "setting": "hCB2; M = -8.78308", "value": "37.5933 and 37.49"}, {"measurement": "radioligand binding, competition curve point (normalized)", "setting": "hCB2; M = -9.49629", "value": "71.1443 and 45.0839"}, {"measurement": "radioligand binding, competition curve point (normalized)", "setting": "hCB2; M = -10.2095", "value": "95.3669 and 77.3781"}, {"measurement": "radioligand binding, competition curve point (normalized)", "setting": "hCB2; M = -10.9227", "value": "103.545 and 89.3952"}, {"measurement": "radioligand binding, competition curve point (normalized)", "setting": "hCB2; M = -11.6359", "value": "105.504 and 103.118"}]}
